In ChEMBL document CHEMBL3046513, “Synthesis, characterization, and biological evaluation of some N-aryl hydrazones and their 2,3-disubstituted-4-thiazolidinone derivatives” (Med Chem Res, 2013):
Values after ≈ are worked out from the molar mass of the structure shown. Active and inactive are the calls of the source. No cut-off for these calls is given here.

Columns and labels:
Candida albicans [1] = experiment: Antifungal activity against Candida albicans assessed as growth inhibition by serial plate dilution method; type: functional
Bacillus cereus = experiment: Antibacterial activity against Bacillus cereus assessed as growth inhibition by serial plate dilution method; type: functional
Pseudomonas aeruginosa = experiment: Antibacterial activity against Pseudomonas aeruginosa ATCC 27853 assessed as growth inhibition by serial plate dilution method; type: functional
Staphylococcus aureus = experiment: Antibacterial activity against Staphylococcus aureus ATCC 25923 assessed as growth inhibition by serial plate dilution method; type: functional
Escherichia coli = experiment: Antibacterial activity against Escherichia coli ATCC 25922 assessed as growth inhibition by serial plate dilution method; type: functional
Mus musculus [2] = experiment: Analgesic activity in Mus musculus […] albino (mouse) assessed as time taken to tail withdrawl at 100 mg/kg, po administered through intragastric tube after 180 min by tail flick test (reference value: 1.363 +/- 0.1297 secs); type: functional
Mus musculus [3] = experiment: Analgesic activity in Mus musculus […] albino (mouse) assessed as time taken to tail withdrawl at 100 mg/kg, po administered through intragastric tube after 120 min by tail flick test (reference value: 1.363 +/- 0.1297 secs); type: functional
Mus musculus [4] = experiment: Analgesic activity in Mus musculus […] albino (mouse) assessed as time taken to tail withdrawl at 100 mg/kg, po administered through intragastric tube after 60 min by tail flick test (reference value: 1.363 +/- 0.1297 secs); type: functional
Rattus norvegicus [5] = experiment: Anti-inflammatory activity in Rattus norvegicus (rat) assessed as decrease in carrageenan-induced paw edema at 100 mg/kg, po administered 30 min prior to carrageenan challenge measured after 180 min (reference value: 2.275 +/- 0.1181 mm); type: functional
Rattus norvegicus [6] = experiment: Anti-inflammatory activity in Rattus norvegicus (rat) assessed as decrease in carrageenan-induced paw edema at 100 mg/kg, po administered 30 min prior to carrageenan challenge measured after 120 min (reference value: 2.375 +/- 0.1436 mm); type: functional
Rattus norvegicus [7] = experiment: Anti-inflammatory activity in Rattus norvegicus (rat) assessed as decrease in carrageenan-induced paw edema at 100 mg/kg, po administered 30 min prior to carrageenan challenge measured after 60 min (reference value: 2.175 +/- 0.1797 mm); type: functional
[8] = test system: Radical scavenging activity; experiment: Antioxidant activity assessed as inhibition of DPPH radical generation at 200 to 800 ug/mL after 20 min by spectrophotometric analysis; type: functional
Candida albicans [9] = experiment: Ratio of fluconazole MIC to compound MIC for Candida albicans; type: functional
Mus musculus [10] = experiment: Acute toxicity in Mus musculus Swiss albino (mouse) assessed as behavioral changes at 500 to 2500 mg/kg, po after 4 to 24 hr; type: organism-based; set-up: route oral; conditions: in vivo
Mus musculus [11] = experiment: Acute toxicity in Mus musculus Swiss albino (mouse) assessed as mortality at 500 to 2500 mg/kg, po after 4 to 24 hr; type: organism-based; set-up: route oral; conditions: in vivo
[12] = test system: Radical scavenging activity; experiment: Antioxidant activity assessed as inhibition of DPPH radical generation at 800 ug/mL after 20 min by spectrophotometric analysis relative to control; type: functional
[13] = test system: Radical scavenging activity; experiment: Antioxidant activity assessed as inhibition of DPPH radical generation at 400 ug/mL after 20 min by spectrophotometric analysis relative to control; type: functional
[14] = test system: Radical scavenging activity; experiment: Antioxidant activity assessed as inhibition of DPPH radical generation at 200 ug/mL after 20 min by spectrophotometric analysis relative to control; type: functional

Row | SMILES | MIC (Candida albicans [1]) [µg/mL] | MIC (Bacillus cereus) [µg/mL] | MIC (Pseudomonas aeruginosa) [µg/mL] | MIC (Staphylococcus aureus) [µg/mL] | MIC (Escherichia coli) [µg/mL] | Time (Mus musculus [2]) [s] | Time (Mus musculus [3]) [s] | Time (Mus musculus [4]) [s] | Activity (Rattus norvegicus [5]) [mm] | Activity (Rattus norvegicus [6]) [mm] | Activity (Rattus norvegicus [7]) [mm] | inhibition [8] | Ratio (Candida albicans [9]) | Activity (Mus musculus [10]) | Activity (Mus musculus [11]) | inhibition [12] [%] | inhibition [13] [%] | inhibition [14] [%]
1 | COc1ccc(Br)c(C(=O)N/N=C\c2ccccc2)c1 | 1.56 (≈ 4.69 µM) | 12.5 (≈ 37.5 µM) | 12.5 (≈ 37.5 µM) | 12.5 (≈ 37.5 µM) | 12.5 (≈ 37.5 µM) |  |  |  |  |  |  |  | 5 | Non-toxic | Non-toxic |  |  | 
2 | COc1ccc(Br)c(C(=O)NN2C(=O)CSC2c2ccc(O)c(OC)c2)c1 (configuration not stated) | 12.5 (≈ 27.6 µM) | 6.25 (≈ 13.8 µM) | 6.25 (≈ 13.8 µM) | 6.25 (≈ 13.8 µM) | 12.5 (≈ 27.6 µM) | 2.841 | 3.334 | 3.468 | 1.78 | 1.77 | 1.528 | inactive |  |  |  |  |  | 
3 | COc1ccc(Br)c(C(=O)NN2C(=O)CSC2c2cccc(Cl)c2)c1 (configuration not stated) | 1.56 (≈ 3.54 µM) | 6.25 (≈ 14.1 µM) | 6.25 (≈ 14.1 µM) | 12.5 (≈ 28.3 µM) | 12.5 (≈ 28.3 µM) | 2.438 | 2.8 | 2.825 | 1.6 | 1.65 | 1.575 |  | 5 | Non-toxic | Non-toxic | 59.5 | 58.5 | 57.6

Continued, in another order:

Row | MIC (Candida albicans [1]) [µg/mL] | MIC (Bacillus cereus) [µg/mL] | MIC (Pseudomonas aeruginosa) [µg/mL] | MIC (Staphylococcus aureus) [µg/mL] | MIC (Escherichia coli) [µg/mL] | SMILES | Time (Mus musculus [2]) [s] | Time (Mus musculus [3]) [s] | Time (Mus musculus [4]) [s] | Activity (Rattus norvegicus [5]) [mm] | Activity (Rattus norvegicus [6]) [mm] | Activity (Rattus norvegicus [7]) [mm] | inhibition [8] | Ratio (Candida albicans [9]) | Activity (Mus musculus [10]) | Activity (Mus musculus [11]) | inhibition [12] [%] | inhibition [13] [%] | inhibition [14] [%]
4 | 3.12 (≈ 7.38 µM) | 12.5 (≈ 29.5 µM) | 6.25 (≈ 14.8 µM) | 6.25 (≈ 14.8 µM) | 12.5 (≈ 29.5 µM) | COc1ccc(Br)c(C(=O)NN2C(=O)CSC2c2ccccc2O)c1 (configuration not stated) | 2.235 | 3.623 | 3.546 | 2.081 | 1.98 | 1.88 | inactive |  |  |  |  |  | 
5 | 6.25 (≈ 14.8 µM) | 12.5 (≈ 29.7 µM) | 12.5 (≈ 29.7 µM) | 6.25 (≈ 14.8 µM) | 12.5 (≈ 29.7 µM) | COc1ccc(Br)c(C(=O)NN2C(=O)CSC2c2ccc(C)cc2)c1 (configuration not stated) | 2.225 | 2.088 | 2.038 | 1.95 | 1.9 | 1.525 | inactive |  |  |  |  |  | 
6 | 6.25 (≈ 14.3 µM) | 6.25 (≈ 14.3 µM) | 6.25 (≈ 14.3 µM) | 6.25 (≈ 14.3 µM) | 12.5 (≈ 28.6 µM) | COc1ccc(Br)c(C(=O)NN2C(=O)CSC2c2ccccc2OC)c1 (configuration not stated) | 2.238 | 2.075 | 2.175 | 2.075 | 1.95 | 1.825 | inactive |  |  |  |  |  | 
7 | 6.25 (≈ 14.1 µM) | 6.25 (≈ 14.1 µM) | 3.12 (≈ 7.07 µM) | 6.25 (≈ 14.1 µM) | 12.5 (≈ 28.3 µM) | COc1ccc(Br)c(C(=O)NN2C(=O)CSC2c2ccccc2Cl)c1 (configuration not stated) | 2.5 | 2.125 | 1.963 | 2.075 | 1.975 | 1.85 |  |  |  |  | 72.9 | 65.9 | 59.3
